# Measurements reported in US12139471B2, “NLRP3 inflammasome inhibitors” (Novartis AG, priority 2019, dated 2024).
# Structures can show the parent of a compound that is named as a salt.
# Tested on: NF-kB-dependent TNF-α secretion
# Assay: TNF-α secretion assay (counter screen, THP-1 cells, HTRF)
# Assay type: cell-based
# Conditions: undifferentiated THP-1 cells, Pam3CSK4-stimulated, 3 hours, TNF-α by HTRF
# Description: Monocytic THP-1 cells were maintained according to providers' instructions in RPMI media as described above. […] Experimental compounds were prepared and added as described above. TNF-α secretion was triggered by the addition of either 1 μg/mL LPS (Sigma, #L4391) or 100 ng/mL Pam3CSK4 (Invivogen, #tlri-pms) depending on the experiment, and cells were incubated for 3 hours. 10 μL supernatant was removed, and TNF-α levels were monitored using an HTRF assay (CisBio, #62TNFPEC) according to manufacturers' instructions. Viability was monitored as described above.
row,Molecule,IC50
1,(3R)-3-((6-(2-Hydroxy-6-methyl-4-(trifluoromethyl)phenyl)-4-methylpyridazin-3-ylamino)-1-methylpiperidine 1-oxide TFA-salt [Ex 104],> 100000 nM

# Molecular target: T1, NLRP3 inflammasome (Homo sapiens, UniProt Q96P20)
# T1 construct: host or cells: THP-1 cells, PMA-differentiated
# Assay: IL-1β secretion assay (nigericin-activated, PMA-differentiated THP-1 cells, HTRF)
# Assay type: cell-based
# Conditions: PMA-differentiated THP-1 cells; compound 1 hour, then 15 μM nigericin, 3 hours; IL-1β by HTRF; read-out: IL-1β IC50
# Description: 10 μL supernatant was removed, and IL-1β levels were monitored using an HTRF assay (CisBio, #62IL1PEC) according to manufacturers' instructions. Viability and pyroptosis was monitored with the addition of PrestoBlue cell viability reagent (Life Technologies, #A13261) directly to the cell culture plate.
# IC50 values were calculated from the plot of percentage of inhibition versus the inhibitor concentration by a logistics fit according to: y=A2+(A1−A2)/(1+(x/IC50)^p) where y is the %-inhibition at the inhibitor concentration, x. A1 is the lowest inhibition value, i.e. 0%, and A2 the maximum inhibition value, i.e. 100%. The exponent, p, is the Hill coefficient. The curve fitting was conducted with an internally developed software suite.
# NLRP3-dependent IL-1β secretion was stimulated in PMA-differentiated THP-1 cells by the addition of nigericin, and cytokines were measured in the […] after 3 hours. As discussed above, activation of the NLRP3 inflammasome requires both an NF-kB-dependent priming step and the addition of a NLRP3 activator.
# T1 sequence (Q96P20 whole entry): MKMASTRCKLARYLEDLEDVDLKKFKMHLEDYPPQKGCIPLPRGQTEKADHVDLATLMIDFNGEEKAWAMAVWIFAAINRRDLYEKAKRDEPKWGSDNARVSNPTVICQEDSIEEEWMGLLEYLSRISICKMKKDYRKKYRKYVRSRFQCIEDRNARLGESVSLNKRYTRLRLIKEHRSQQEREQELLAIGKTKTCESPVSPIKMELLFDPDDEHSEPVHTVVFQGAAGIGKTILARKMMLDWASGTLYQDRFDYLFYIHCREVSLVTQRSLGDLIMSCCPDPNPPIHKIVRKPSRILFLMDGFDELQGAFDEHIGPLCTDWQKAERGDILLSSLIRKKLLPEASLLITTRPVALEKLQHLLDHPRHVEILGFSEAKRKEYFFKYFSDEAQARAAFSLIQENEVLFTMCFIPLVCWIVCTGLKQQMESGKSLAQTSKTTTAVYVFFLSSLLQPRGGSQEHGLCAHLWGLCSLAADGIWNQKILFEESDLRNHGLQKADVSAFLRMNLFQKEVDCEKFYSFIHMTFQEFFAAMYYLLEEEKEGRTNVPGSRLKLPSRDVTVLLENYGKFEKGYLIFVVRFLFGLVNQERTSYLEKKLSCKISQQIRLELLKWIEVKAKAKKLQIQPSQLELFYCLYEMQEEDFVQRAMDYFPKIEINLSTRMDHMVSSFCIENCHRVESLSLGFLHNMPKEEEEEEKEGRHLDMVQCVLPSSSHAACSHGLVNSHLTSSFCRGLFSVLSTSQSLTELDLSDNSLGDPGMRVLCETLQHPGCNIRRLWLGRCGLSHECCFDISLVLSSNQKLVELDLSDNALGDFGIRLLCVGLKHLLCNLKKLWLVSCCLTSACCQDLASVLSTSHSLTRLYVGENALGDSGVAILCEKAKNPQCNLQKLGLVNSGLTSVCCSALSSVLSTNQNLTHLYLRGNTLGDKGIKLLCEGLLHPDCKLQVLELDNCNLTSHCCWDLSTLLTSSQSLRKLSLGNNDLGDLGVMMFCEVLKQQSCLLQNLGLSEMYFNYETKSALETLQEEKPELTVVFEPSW
row,Molecule,IC50
1,"Cc1cc(C(F)(F)F)cc(O)c1-c1ccc(N[C@H]2CCC[C@H](O)C2)nn1 [Ex 57, 2-(6-(((1S,3S)-3-Hydroxycyclohexyl)amino)pyridazin-3-yl)-3-methyl-5-(trifluoromethyl)phenol]",224 nM
2,"Cc1cc(C(F)(F)F)cc(O)c1-c1ccc(N[C@@H]2CCC[C@@H](O)C2)nn1 [Ex 58, 2-(6-(((1R,3R)-3-Hydroxycyclohexyl)amino)pyridazin-3-yl)-3-methyl-5-(trifluoromethyl)phenol]",58.4 nM
3,"Cc1cc(C(F)(F)F)cc(O)c1-c1ccc(N[C@@H]2CCCN(C)C2=O)nn1 [Ex 59, (R)-3-((6-(2-Hydroxy-6-methyl-4-(trifluoromethyl)phenyl)pyridazin-3-yl)amino)-1-methylpiperidin-2-one]",35.9 nM
4,"Cc1cc(C(F)(F)F)cc(O)c1-c1ccc(NC[C@@H](F)C(C)(C)O)nn1 [Ex 60, (R)-2-(6-((2-Fluoro-3-hydroxy-3-methylbutyl)amino)pyridazin-3-yl)-3-methyl-5-(trifluoromethyl)phenol]",139 nM
5,"Cc1cc(C(F)(F)F)cc(O)c1-c1ccc(N[C@@H]2CCC(=O)NC2)nn1 [Ex 61, (R)-5-((6-(2-Hydroxy-6-methyl-4-(trifluoromethyl)phenyl)pyridazin-3-yl)amino)piperidin-2-one]",65.8 nM
6,"C[C@]1(O)C[C@@H](Nc2cc(C(F)(F)F)c(-c3ccc(C(F)(F)F)cc3O)nn2)C1 [Ex 66, 2-(6-(((cis)-3-Hydroxy-3-methylcyclobutyl)amino)-4-(trifluoromethyl)pyridazin-3-yl)-5-(trifluoromethyl)phenol]",187 nM
7,"Cc1cc(C(F)(F)F)cc(O)c1-c1ccc(N[C@H]2C[C@](O)(C(F)(F)F)C2)nn1 [Ex 67, 2-(6-(((cis)-3-Hydroxy-3-(trifluoromethyl)cyclobutyl)amino)pyridazin-3-yl)-3-methyl-5-(trifluoromethyl)phenol]",40.1 nM
8,"Cc1cc(N[C@H]2C[C@@](C)(O)C2)nnc1-c1ccc(Cl)cc1O [Ex 68, 5-Chloro-2-(6-(((cis)-3-hydroxy-3-methylcyclobutyl)amino)-4-methylpyridazin-3-yl)phenol]",89.3 nM
9,"C[C@]1(O)C[C@@H](Nc2cc(C(F)(F)F)c(-c3ccc(Cl)cc3O)nn2)C1 [Ex 69, 5-Chloro-2-(6-(((cis)-3-hydroxy-3-methylcyclobutyl)amino)-4-(trifluoromethyl)pyridazin-3-yl)phenol]",431 nM
10,"Cc1cc(-c2c(C)cc(C(F)(F)F)cc2O)nnc1NCC(C)(C)O [Ex 72, 2-(6-((2-Hydroxy-2-methylpropyl)amino)-5-methylpyridazin-3-yl)-3-methyl-5-(trifluoromethyl)phenol]",44.9 nM
11,"Cc1cc(NCC(C)(C)O)nnc1-c1c(C)cc(C(F)(F)F)cc1O [Ex 73, 2-(6-((2-Hydroxy-2-methylpropyl)amino)-4-methylpyridazin-3-yl)-3-methyl-5-(trifluoromethyl)phenol]",154 nM
12,"Cc1cc(C(F)(F)F)cc(O)c1-c1ccc(NC[C@@H]2C[C@H](F)CN2)nn1 [Ex 75, 2-(6-((((2S,4S)-4-Fluoropyrrolidin-2-yl)methyl)amino)pyridazin-3-yl)-3-methyl-5-(trifluoromethyl)phenol]",18.3 nM
13,"Cc1cc(C(F)(F)F)cc(O)c1-c1ccc(NC[C@@H]2C[C@@H](F)CN2)nn1 [Ex 76, 2-(6-((((2S,4R)-4-Fluoropyrrolidin-2-yl)methyl)amino)pyridazin-3-yl)-3-methyl-5-(trifluoromethyl)phenol]",89.7 nM
14,"Cc1cc(C(F)(F)F)cc(O)c1-c1ccc(NC[C@](C)(O)C(F)(F)F)nn1 [Ex 78, (S)-3-Methyl-2-(6-((3,3,3-trifluoro-2-hydroxy-2-methylpropyl)amino)pyridazin-3-yl)-5-(trifluoromethyl)phenol HCl-salt]",198 nM
15,"Cc1cc(C(F)(F)F)cc(O)c1-c1ccc(NC(C)(C)CO)nn1 [Ex 79, 2-(6-((1-Hydroxy-2-methylpropan-2-yl)amino)pyridazin-3-yl)-3-methyl-5-(trifluoromethyl)phenol]",370 nM
16,"Cc1cc(N[C@H]2C[C@@](C)(O)C2)nnc1-c1ccc(OC(F)(F)F)cc1O [Ex 81, 2-(6-(((cis)-3-Hydroxy-3-methylcyclobutyl)amino)-4-methylpyridazin-3-yl)-5-(trifluoromethoxy)phenol]",130 nM
17,"Cc1cc(C(F)(F)F)cc(O)c1-c1ccc(NCC2(O)CCCC2)nn1 [Ex 98, 2-(6-(((1-Hydroxycyclopentyl)methyl)amino)pyridazin-3-yl)-3-methyl-5-(trifluoromethyl)phenol]",115 nM
18,"Cc1cc(-c2c(C)cc(C(F)(F)F)cc2O)nnc1NC1CCC(=O)N(C)C1 (stereo not shown) [Ex 99, 5-((6-(2-Hydroxy-6-methyl-4-(trifluoromethyl)phenyl)-4-methylpyridazin-3-yl)amino)-1-methylpiperidin-2-one]",75 nM
19,"Cc1cc(-c2c(C)cc(C(F)(F)F)cc2O)nnc1N[C@@H]1CCCN(C)C1=O [Ex 102, (R)-3-((6-(2-Hydroxy-6-methyl-4-(trifluoromethyl)phenyl)-4-methylpyridazin-3-yl)amino)-1-methylpiperidin-2-one]",49 nM
20,"Cc1cc(C)c(-c2ccc(NCCc3ccc(S(N)(=O)=O)cc3)nn2)c(O)c1 [Ex 103, 4-(2-((6-(2-Hydroxy-4,6-dimethylphenyl)pyridazin-3-yl)amino)ethyl)benzenesulfonamide]",136 nM
21,(3R)-3-((6-(2-Hydroxy-6-methyl-4-(trifluoromethyl)phenyl)-4-methylpyridazin-3-ylamino)-1-methylpiperidine 1-oxide TFA-salt [Ex 104],59 nM
